# Results from US20160214918A1, “COMPOSITION FOR TREATING METABOLIC SYNDROME AND A PREPARATION METHOD THEREOF” (Kaohsiung Medical University, priority 2015, published 2016).
# Assays:
# [1] = test system: fat cells; assay: cellular toxicity in fat cells; assay type: cell-based; conditions: FIG. 6A, drug 30 ug/mL
# [2] = test system: mature fat cells; assay: glucose consumption rate of fat cells in culture medium; assay type: cell-based; conditions: 24 hours, control group about 20%
# From the text: Please refer to FIGS. 6A-6C. FIGS. 6A-6C show the results of the activity of the glucose consumption rate of fat cells in the culture medium. As shown in FIGS. 6A-6C, various compounds containing halogens, such as chlorine, bromine and iodine, can increase the glucose consumption rate of fat cells. Many of the deuterium-containing compounds are new ones in this example. […] Symbol ‘Con’ denotes the Control Group, Symbol ‘5’ denotes a 2Br2H compound, Symbol ‘6’ denotes a 2I2H compound, Symbol ‘Met’ denotes a metformin, Symbol ‘AI’ denotes an AMPK inhibitor, Symbol ‘L’ denotes a low-dose usage of 15 ug/mL, and Symbol ‘H’ denotes a high-dose usage of 30 ug/mL
# The activity of the glucose consumption rate of fat cells is taken from the following: A testing drug, 2,3-dideutero-1-(2-iodophenyl)-3-(4-methoxyphenyl)propan-1-one with the concentration 30 ug/mL, was cultured with mature fat cells for 24 hours. It was then tested to determine the change of the glucose concentration in the culture medium.
# 24 hours after the replacement of a culture media, the glucose consumption rate of the control group was about 20%. After insulin was added, the glucose consumption rate of the cells in the control group upgrades to 30%. With the commercial drug, Pioglitazone of 30 ug/mL, the glucose consumption rate of the cells in the corresponding group increased to 40%.
Molecule,cellular toxicity [1],other results
"COc1ccc(/C=C/C(=O)c2ccccc2I)cc1 [2I2H, (E)-1-(2-iodophenyl)-3-(4-methoxyphenyl)prop-2-en-1-one]",no visible cellular toxicity,
"CCc1ccc(CCOc2ccc(CC3SC(=O)NC3=O)cc2)nc1 (centres unmarked) [Pioglitazone, reference compound]",,"glucose consumption rate of the cells ([2]; mature fat cells, drug 30 ug/mL): 40%"
insulin: insulin added to fat cells as a positive control,,"glucose consumption rate of the cells ([2]; fat cells, after insulin was added): 30%"
"COc1ccc(C#CC(=O)c2ccccc2I)cc1 [2I3, 1-(2-iodophenyl)-3-(4-methoxyphenyl)prop-2-yn-1-one]",significant cellular toxicity,
"[2H]C(C(=O)c1ccccc1I)C([2H])c1ccc(OC)cc1 (centres unmarked) [2I1D, 2,3-dideutero-1-(2-iodophenyl)-3-(4-methoxyphenyl)propan-1-one]",no visible cellular toxicity,
